Key:
Type in all cases: in vivo
[1] = tested on: barnyardgrass (Echinochloa crus-galli); assay: Test A preemergence, barnyardgrass; settings: 0 to 100 scale (0 no effect, 100 complete control)
How it was run: (§1)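 Pre: directed soil spray after sowing in loam/sand. Post: seedlings at 1–2 leaf stage, 2–10 cm. Vehicle: non-phytotoxic solvent mix + surfactant. Greenhouse ~10 d; visual injury 0–100 vs untreated controls.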

[2] = tested on: large crabgrass (Digitaria sanguinalis); assay: Test A preemergence, large crabgrass; settings: 0 to 100 scale (0 no effect, 100 complete control)
How it was run: as §1

[3] = tested on: giant foxtail (Setaria faberi); assay: Test A preemergence, giant foxtail; settings: 0 to 100 scale (0 no effect, 100 complete control)
How it was run: as §1

[4] = tested on: morningglory (Ipomoea spp.); assay: Test A preemergence, morningglory; settings: 0 to 100 scale (0 no effect, 100 complete control)
How it was run: as §1

[5] = tested on: pigweed (Amaranthus retroflexus); assay: Test A preemergence, pigweed; settings: 0 to 100 scale (0 no effect, 100 complete control)
How it was run: as §1

[6] = tested on: velvetleaf (Abutilon theophrasti); assay: Test A preemergence, velvetleaf; settings: 0 to 100 scale (0 no effect, 100 complete control)
How it was run: as §1

[7] = tested on: wheat (Triticum aestivum); assay: Test A preemergence, wheat; settings: 0 to 100 scale (0 no effect, 100 complete control)
How it was run: as §1

corn (Zea mays) [8] = assay: Test A preemergence, corn; settings: 0 to 100 scale (0 no effect, 100 complete control)
How it was run: as §1

[9] = tested on: barnyardgrass (Echinochloa crus-galli); assay: Test A postemergence, barnyardgrass; settings: 0 to 100 scale (0 no effect, 100 complete control)
How it was run: as §1

[10] = tested on: large crabgrass (Digitaria sanguinalis); assay: Test A postemergence, large crabgrass; settings: 0 to 100 scale (0 no effect, 100 complete control)
How it was run: as §1

[11] = tested on: giant foxtail (Setaria faberi); assay: Test A postemergence, giant foxtail; settings: 0 to 100 scale (0 no effect, 100 complete control)
How it was run: as §1

[12] = tested on: morningglory (Ipomoea spp.); assay: Test A postemergence, morningglory; settings: 0 to 100 scale (0 no effect, 100 complete control)
How it was run: as §1

[13] = tested on: pigweed (Amaranthus retroflexus); assay: Test A postemergence, pigweed; settings: 0 to 100 scale (0 no effect, 100 complete control)
How it was run: as §1

[14] = tested on: velvetleaf (Abutilon theophrasti); assay: Test A postemergence, velvetleaf; settings: 0 to 100 scale (0 no effect, 100 complete control)
How it was run: as §1

[15] = tested on: wheat (Triticum aestivum); assay: Test A postemergence, wheat; settings: 0 to 100 scale (0 no effect, 100 complete control)
How it was run: as §1

corn (Zea mays) [16] = assay: Test A postemergence, corn; settings: 0 to 100 scale (0 no effect, 100 complete control)
How it was run: as §1

rice (Oryza sativa) = assay: Test B flooded paddy test, rice; settings: Flood, scale 0 to 100
How it was run: (§2)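 Paddy-water application to 2-leaf plants in pots held under 3 cm of flooding; response is a 0–100 visual control rating against controls after 13 to 15 days, and a dash marks a missing result.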

[17] = tested on: umbrella sedge (Cyperus difformis); assay: Test B flooded paddy test, umbrella sedge; settings: Flood, scale 0 to 100
How it was run: as §2

[18] = tested on: ducksalad (Heteranthera limosa); assay: Test B flooded paddy test, ducksalad; settings: Flood, scale 0 to 100
How it was run: as §2

[19] = tested on: barnyardgrass (Echinochloa crus-galli); assay: Test B flooded paddy test, barnyardgrass; settings: Flood
How it was run: as §2

[20] = 250 g ai/ha, scale 0 to 100 (0 no effect, 100 complete control)

CC1(C)CC([S+]([O-])Cc2c(C(F)(F)F)nc3ccon3c2=O)=NO1 (stereo not drawn) [Compound 43]
Plant response rating, Barnyardgrass ([1]; 125 g ai/ha): 10 | Plant response rating, Barnyardgrass ([1]; 500 g ai/ha): 70 | Plant response rating, Crabgrass, Large ([2]; 125 g ai/ha): 0 | Plant response rating, Crabgrass, Large ([2]; 500 g ai/ha): 60 | Plant response rating, Foxtail, Giant ([3]; 125 g ai/ha): 0 | Plant response rating, Foxtail, Giant ([3]; 500 g ai/ha): 80 | Plant response rating, Morningglory ([4]; 125 g ai/ha): 0 | Plant response rating, Morningglory ([4]; 500 g ai/ha): 0 | Plant response rating, Pigweed ([5]; 125 g ai/ha): 0 | Plant response rating, Pigweed ([5]; 500 g ai/ha): 0 | Plant response rating, Velvetleaf ([6]; 125 g ai/ha): 0 | Plant response rating, Velvetleaf ([6]; 500 g ai/ha): 0 | Plant response rating, Wheat ([7]; 125 g ai/ha): 0 | Plant response rating, Wheat ([7]; 500 g ai/ha): 0 | Plant response rating, Corn (corn (Zea mays) [8]; 125 g ai/ha): 0 | Plant response rating, Corn (corn (Zea mays) [8]; 500 g ai/ha): 0 | Plant response rating, Barnyardgrass ([9]; 125 g ai/ha): 40 | Plant response rating, Barnyardgrass ([9]; 500 g ai/ha): 70 | Plant response rating, Crabgrass, Large ([10]; 125 g ai/ha): 10 | Plant response rating, Crabgrass, Large ([10]; 500 g ai/ha): 60 | Plant response rating, Foxtail, Giant ([11]; 125 g ai/ha): 30 | Plant response rating, Foxtail, Giant ([11]; 500 g ai/ha): 70 | Plant response rating, Morningglory ([12]; 125 g ai/ha): 0 | Plant response rating, Morningglory ([12]; 500 g ai/ha): 40 | Plant response rating, Pigweed ([13]; 125 g ai/ha): 0 | Plant response rating, Pigweed ([13]; 500 g ai/ha): 0 | Plant response rating, Velvetleaf ([14]; 125 g ai/ha): 0 | Plant response rating, Velvetleaf ([14]; 500 g ai/ha): 0 | Plant response rating, Wheat ([15]; 125 g ai/ha): 0 | Plant response rating, Wheat ([15]; 500 g ai/ha): 0 | Plant response rating, Corn (corn (Zea mays) [16]; 125 g ai/ha): 0 | Plant response rating, Corn (corn (Zea mays) [16]; 500 g ai/ha): 40 | Plant response rating, Rice (rice (Oryza sativa); 31 g ai/ha): 0 | Plant response rating, Rice (rice (Oryza sativa); 62 g ai/ha): 0 | Plant response rating, Rice (rice (Oryza sativa); 125 g ai/ha): 0 | Plant response rating, Rice (rice (Oryza sativa); 250 g ai/ha): 0 | Plant response rating, Sedge, Umbrella ([17]; 31 g ai/ha): 0 | Plant response rating, Sedge, Umbrella ([17]; 62 g ai/ha): 0 | Plant response rating, Sedge, Umbrella ([17]; 125 g ai/ha): 20 | Plant response rating, Sedge, Umbrella ([17]; 250 g ai/ha): 30 | Plant response rating, Ducksalad ([18]; 31 g ai/ha): 0 | Plant response rating, Ducksalad ([18]; 62 g ai/ha): 0 | Plant response rating, Ducksalad ([18]; 125 g ai/ha): 0 | Plant response rating, Ducksalad ([18]; 250 g ai/ha): 25 | Plant response rating, Barnyardgrass ([19]; 31 g ai/ha, scale 0 to 100): 0 | Plant response rating, Barnyardgrass ([19]; 62 g ai/ha, scale 0 to 100): 0 | Plant response rating, Barnyardgrass ([19]; 125 g ai/ha, scale 0 to 100): 0 | Plant response rating, Barnyardgrass [19, 20]: 0

Cn1c(=O)c(CS(=O)(=O)C2=NOC(C)(C)C2)nc2ccccc21 [Compound 23]
Plant response rating, Barnyardgrass ([1]; 125 g ai/ha): 20 | Plant response rating, Barnyardgrass ([1]; 500 g ai/ha): 40 | Plant response rating, Crabgrass, Large ([2]; 125 g ai/ha): 10 | Plant response rating, Crabgrass, Large ([2]; 500 g ai/ha): 70 | Plant response rating, Foxtail, Giant ([3]; 125 g ai/ha): 30 | Plant response rating, Foxtail, Giant ([3]; 500 g ai/ha): 80 | Plant response rating, Morningglory ([4]; 125 g ai/ha): 0 | Plant response rating, Pigweed ([5]; 125 g ai/ha): 0 | Plant response rating, Pigweed ([5]; 500 g ai/ha): 10 | Plant response rating, Velvetleaf ([6]; 125 g ai/ha): 0 | Plant response rating, Velvetleaf ([6]; 500 g ai/ha): 0 | Plant response rating, Wheat ([7]; 125 g ai/ha): 0 | Plant response rating, Wheat ([7]; 500 g ai/ha): 0 | Plant response rating, Corn (corn (Zea mays) [8]; 125 g ai/ha): 0 | Plant response rating, Corn (corn (Zea mays) [8]; 500 g ai/ha): 0 | Plant response rating, Barnyardgrass ([9]; 125 g ai/ha): 40 | Plant response rating, Barnyardgrass ([9]; 500 g ai/ha): 60 | Plant response rating, Crabgrass, Large ([10]; 125 g ai/ha): 30 | Plant response rating, Crabgrass, Large ([10]; 500 g ai/ha): 60 | Plant response rating, Foxtail, Giant ([11]; 125 g ai/ha): 10 | Plant response rating, Foxtail, Giant ([11]; 500 g ai/ha): 60 | Plant response rating, Morningglory ([12]; 125 g ai/ha): 0 | Plant response rating, Morningglory ([12]; 500 g ai/ha): 0 | Plant response rating, Pigweed ([13]; 125 g ai/ha): 0 | Plant response rating, Pigweed ([13]; 500 g ai/ha): 0 | Plant response rating, Velvetleaf ([14]; 125 g ai/ha): 0 | Plant response rating, Velvetleaf ([14]; 500 g ai/ha): 0 | Plant response rating, Wheat ([15]; 125 g ai/ha): 0 | Plant response rating, Wheat ([15]; 500 g ai/ha): 0 | Plant response rating, Corn (corn (Zea mays) [16]; 125 g ai/ha): 0 | Plant response rating, Corn (corn (Zea mays) [16]; 500 g ai/ha): 0 | Plant response rating, Rice (rice (Oryza sativa); 62 g ai/ha): 0 | Plant response rating, Rice (rice (Oryza sativa); 250 g ai/ha): 0 | Plant response rating, Sedge, Umbrella ([17]; 62 g ai/ha): 0 | Plant response rating, Sedge, Umbrella ([17]; 250 g ai/ha): 0 | Plant response rating, Ducksalad ([18]; 62 g ai/ha): 0 | Plant response rating, Ducksalad ([18]; 250 g ai/ha): 0 | Plant response rating, Barnyardgrass ([19]; 62 g ai/ha, scale 0 to 100): 0 | Plant response rating, Barnyardgrass [19, 20]: 0
